Experimental findings from ChEMBL document CHEMBL1201862, “PubChem BioAssay data set” (2004) are described below.

Some test systems named below: COLO 205; NCI-H226; HCT-15; A549; KM12; M14; SN12C; NCI/ADR-RES; K562; OVCAR-5; SK-MEL-5; T47D; HOP-92; U-251; MDA-MB-435; TK-10; MCF7; OVCAR-8; Malme-3M; BT-549.
Common to all, as to assay: NCI-60 cell line screen, 48 h

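These data come from cells grown in 96-well plates and exposed to compound for 48 hours at five concentrations. GI50 marks 50% less growth.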 Active and inactive are the calls of the source. Cut-off read from the data, not from the text of the source: active = GI50 up to about 1.1 µM and inactive = higher.

For the compound `CC(=O)c1c2c(c3ccccc3c1O)O[C@@H]1OCC[C@H]21`, the GI50 in the assay on COLO 205 is > 100 µM (inactive); in the assay with NCI-H226, > 100 µM (inactive); with HCT-15 it was over 100 µM; in the assay with A549, > 100 µM (inactive); in the assay with KM12 it was > 100 µM (inactive); in the assay with M14, > 100 µM (inactive). Also, the GI50 with SN12C, in the assay on NCI/ADR-RES, in the assay with K562, with OVCAR-5, in the assay with SK-MEL-5 and with T47D was > 100 µM (inactive) throughout. Also, the GI50 with HOP-92 was > 100 µM (inactive); in the assay with U-251, > 100 µM (inactive); with MDA-MB-435, > 100 µM (inactive); in the assay with TK-10, > 100 µM (inactive); with MCF7 it was 30 µM (inactive); in the assay with OVCAR-8, > 100 µM (inactive). Also, the values for the GI50 in the assay with Malme-3M and with BT-549 were > 100 µM (inactive) and 48.4 µM (inactive), respectively.

For `Nc1nc(O)c2nc3c(nc2n1)C(=O)N(c1ccc(C(=O)O)cc1)C3`, the GI50 is > 100 µM (inactive) in the assay with COLO 205; > 100 µM (inactive) with NCI-H226; over 100 µM in the assay on HCT-15; > 100 µM (inactive) in the assay on A549; > 100 µM (inactive) in the assay with KM12; > 100 µM (inactive) in the assay on M14. For the same compound, the GI50 in the assay on SN12C, with NCI/ADR-RES, in the assay with K562, in the assay with OVCAR-5, in the assay with SK-MEL-5 and with T47D was > 100 µM (inactive) each time. In addition, the GI50 in the assay on HOP-92, in the assay with U-251, in the assay with MDA-MB-435, with TK-10, in the assay with MCF7 and with OVCAR-8 was > 100 µM (inactive) in each case. Besides, the GI50 with Malme-3M and in the assay with BT-549 was > 100 µM (inactive) in each case.

Take `CCOC(=O)[C@H](CO)NC1=C(Cl)C(=O)c2c(O)ccc(O)c2C1=O`: the GI50 was 3.87 µM (inactive) in the assay with COLO 205; > 10 µM (inactive) in the assay with NCI-H226; over 10 µM in the assay with HCT-15; > 10 µM (inactive) with A549; > 10 µM (inactive) in the assay on KM12; > 10 µM (inactive) in the assay with M14. Also, the GI50 in the assay on SN12C, with NCI/ADR-RES, in the assay with K562, in the assay with OVCAR-5, in the assay on SK-MEL-5 and in the assay with T47D was > 10 µM (inactive) each time. Further, the GI50 is > 10 µM (inactive) with HOP-92; > 10 µM (inactive) with U-251; > 10 µM (inactive) in the assay with MDA-MB-435; > 10 µM (inactive) with TK-10; 3.21 µM (inactive) with MCF7; > 10 µM (inactive) in the assay on OVCAR-8. Moreover, the GI50 in the assay on Malme-3M and in the assay on BT-549 was > 10 µM (inactive) each time.

Turning to `CCOC(=O)c1cc(-c2ccc(OC)c(OC)c2)c[nH]1`, the GI50 in the assay with COLO 205 was > 10 µM (inactive); in the assay on NCI-H226 it was > 10 µM (inactive); in the assay with HCT-15, over 10 µM; in the assay with A549 it was > 10 µM (inactive); in the assay with KM12, > 10 µM (inactive); in the assay with M14 it was > 10 µM (inactive). The GI50 in the assay on SN12C, in the assay on NCI/ADR-RES, in the assay on K562, with OVCAR-5, in the assay with SK-MEL-5 and in the assay on T47D was > 10 µM (inactive) in each case. Besides, the GI50 in the assay on HOP-92, with U-251, in the assay on MDA-MB-435, in the assay on TK-10, in the assay on MCF7 and with OVCAR-8 was > 10 µM (inactive) each time. Also, the GI50 in the assay on Malme-3M and with BT-549 was > 10 µM (inactive) each time.

Regarding `COc1cc(C2SCC(=O)N2c2ccc(-c3ccc(-n4c(-c5ccccc5)nc5ccccc5c4=O)cc3)cc2)cc(OC)c1OC` (stereo not given), the GI50 in the assay with COLO 205 is 54.1 µM (inactive); with NCI-H226 it was > 100 µM (inactive); in the assay on HCT-15 it was 28.6 µM; with A549, 24.6 µM (inactive); with KM12, 12.6 µM (inactive); with M14, 20.5 µM (inactive). Further, the GI50 in the assay on SN12C is 81.5 µM (inactive); with NCI/ADR-RES, 29.2 µM (inactive); in the assay with K562, 13.6 µM (inactive); in the assay with OVCAR-5, > 100 µM (inactive); in the assay on SK-MEL-5, 22.4 µM (inactive); with T47D, 24.8 µM (inactive). Also, the GI50 is 50.7 µM (inactive) with HOP-92; 22.2 µM (inactive) in the assay with U-251; 21.8 µM (inactive) with MDA-MB-435; 63.1 µM (inactive) in the assay on TK-10; 26.2 µM (inactive) with MCF7; 43.4 µM (inactive) in the assay on OVCAR-8. The GI50 was 31.7 µM (inactive) with Malme-3M and 17.3 µM (inactive) in the assay on BT-549.

For the compound `CCN(CC)CCNc1ccc2ncn3c4cc(OC)c(OC)c(O)c4c(=O)c1c23`, the GI50 was 1.33 µM (inactive) in the assay with COLO 205; 12.3 µM (inactive) in the assay with NCI-H226; 9.91 µM with HCT-15; 11.9 µM (inactive) with A549; 7 µM (inactive) with KM12; 14.2 µM (inactive) in the assay with M14. Moreover, the GI50 was 6.47 µM (inactive) with SN12C; 3.94 µM (inactive) in the assay with NCI/ADR-RES; 5.89 µM (inactive) in the assay with K562; 21.5 µM (inactive) in the assay with OVCAR-5; 15.5 µM (inactive) in the assay with SK-MEL-5; 21.8 µM (inactive) in the assay on T47D. Further, the GI50 in the assay on HOP-92 is 1.61 µM (inactive); in the assay with U-251 it was 12.9 µM (inactive); in the assay with MDA-MB-435 it was 10 µM (inactive); with TK-10 it was 13.8 µM (inactive); in the assay with MCF7, 2.88 µM (inactive); with OVCAR-8, 5.3 µM (inactive). The GI50 is 18 µM (inactive) in the assay with Malme-3M and 16.3 µM (inactive) in the assay on BT-549.

On to `CC(=O)Nc1cc([As](=O)(O)O)ccc1O` [ACETARSONE], for which the GI50 is > 100 µM (inactive) in the assay on COLO 205; > 100 µM (inactive) in the assay on NCI-H226; over 100 µM in the assay with HCT-15; > 100 µM (inactive) with A549; > 100 µM (inactive) with KM12; > 100 µM (inactive) with M14. Also, the GI50 in the assay with SN12C, in the assay with NCI/ADR-RES, with K562, with OVCAR-5, with SK-MEL-5 and in the assay on T47D was > 100 µM (inactive) in each case. In addition, the GI50 in the assay on HOP-92, with U-251, in the assay on MDA-MB-435, with TK-10, in the assay with MCF7 and with OVCAR-8 was > 100 µM (inactive) in each case. Further, the GI50 in the assay with Malme-3M and in the assay with BT-549 was > 100 µM (inactive) each time.

Consider `CCn1c2ccccc2c2cc(NC(=O)c3c(C)nc(O)nc3NCCNCCO)ccc21`, for which the GI50 in the assay with COLO 205 was > 100 µM (inactive); with NCI-H226, > 100 µM (inactive); in the assay on HCT-15, over 100 µM; in the assay with A549 it was > 100 µM (inactive); with KM12, > 100 µM (inactive); in the assay on M14 it was > 100 µM (inactive). The GI50 in the assay with SN12C, with NCI/ADR-RES, in the assay with K562, in the assay on OVCAR-5, in the assay on SK-MEL-5 and in the assay on T47D was > 100 µM (inactive) each time. Further, the GI50 in the assay with HOP-92, with U-251, with MDA-MB-435, in the assay with TK-10, in the assay with MCF7 and with OVCAR-8 was > 100 µM (inactive) in each case. Moreover, the GI50 in the assay with Malme-3M and in the assay on BT-549 was > 100 µM (inactive) each time.

Regarding `FC(F)(F)c1ccc(C2ON=C(c3ccccc3)N2C23CC4CC(CC(C4)C2)C3)cc1` (stereo not given), the GI50 in the assay on COLO 205 is > 10 µM (inactive); in the assay with NCI-H226 it was > 10 µM (inactive); in the assay with HCT-15, over 10 µM; in the assay with A549, > 10 µM (inactive); in the assay with KM12, > 10 µM (inactive); in the assay on M14, > 10 µM (inactive). In addition, the GI50 with SN12C, in the assay with NCI/ADR-RES, in the assay on K562, in the assay on OVCAR-5, in the assay on SK-MEL-5 and in the assay on T47D was > 10 µM (inactive) in each case. The GI50 in the assay with HOP-92 was > 10 µM (inactive); in the assay on U-251 it was > 10 µM (inactive); in the assay with MDA-MB-435, > 10 µM (inactive); with TK-10 it was > 10 µM (inactive); in the assay on MCF7, 1.39 µM (inactive); with OVCAR-8, > 10 µM (inactive). Further, the GI50 in the assay with Malme-3M and with BT-549 was > 10 µM (inactive) in each case.

For `CCCCc1ccc(Nc2nc(Cl)c3c(ncn3C3CC(Oc4ccc(C)cc4)C(COc4ccc(C)cc4)O3)n2)cc1` (stereo not given), the GI50 is > 100 µM (inactive) in the assay with COLO 205; > 100 µM (inactive) in the assay with NCI-H226; over 100 µM in the assay with HCT-15; > 100 µM (inactive) in the assay on A549; > 100 µM (inactive) in the assay with KM12; > 100 µM (inactive) with M14. Besides, the GI50 in the assay with SN12C, with NCI/ADR-RES, in the assay with K562, in the assay on OVCAR-5, in the assay with SK-MEL-5 and in the assay with T47D was > 100 µM (inactive) throughout. Moreover, the GI50 with HOP-92 is > 100 µM (inactive); in the assay with U-251, > 100 µM (inactive); in the assay with MDA-MB-435, > 100 µM (inactive); in the assay with TK-10, > 100 µM (inactive); in the assay on MCF7 it was 39.3 µM (inactive); in the assay on OVCAR-8 it was > 100 µM (inactive). Also, the GI50 in the assay with Malme-3M and with BT-549 was > 100 µM (inactive) throughout.
